Data from patent US12077503B2, “Substituted cyclic amides and their use as herbicides” (FMC CORPORATION, priority 2015, dated 2024).

Experiments:
Type in all cases: in vivo
[1] = system: barnyardgrass (Echinochloa crus-galli); experiment: Test G Pre-Emergence Protocol; conditions: Echinochloa crus-galli, pre-emergence, 312 h, evaluated after 13 days
Summary of the method: (§1)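 Scores are visual damage ratings from 0 (no damage) to 100 (total plant kill), taken 13 days after treatment. Compound was sprayed one day post-sowing at 15.625, 62.5 or 250 g/ha in 50:50 acetone/water with 0.5% Tween 20.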

corn (Zea mays) [2] = experiment: Test G Pre-Emergence Protocol; conditions: Zea mays, pre-emergence, 312 h, evaluated after 13 days
Summary of the method: as §1

[3] = system: ivy-leaved morning glory (Ipomoea hederacea); experiment: Test G Pre-Emergence Protocol; conditions: Ipomoea, pre-emergence, 312 h, evaluated after 13 days
Summary of the method: as §1

[4] = system: giant foxtail (Setaria faberi); experiment: Test G Pre-Emergence Protocol; conditions: Setaria faberi, pre-emergence, 312 h, evaluated after 13 days
Summary of the method: as §1

[5] = system: redroot pigweed (Amaranthus retroflexus); experiment: Test G Pre-Emergence Protocol; conditions: Amaranthus retroflexus, pre-emergence, 312 h, evaluated after 13 days
Summary of the method: as §1

[6] = system: velvetleaf (Abutilon theophrasti); experiment: Test G Pre-Emergence Protocol; conditions: Abutilon theophrasti, pre-emergence, 312 h, evaluated after 13 days
Summary of the method: as §1

[7] = system: barnyardgrass (Echinochloa crus-galli); experiment: Test G Post-Emergence Protocol; conditions: Echinochloa crus-galli, post-emergence, 312 h, read-out: Barnyardgrass damage rating
Summary of the method: (§2)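 Values are percent visual injury at 13 days after treatment (0 none, 100 total). Treatment was a post-emergence spray at 15.625, 62.5 or 250 g/ha on 8-day-old pot plants kept at 24/16 °C.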

corn (Zea mays) [8] = experiment: Test G Post-Emergence Protocol; conditions: Zea mays, post-emergence, 312 h, read-out: Corn damage rating
Summary of the method: as §2

[9] = system: ivy-leaved morning glory (Ipomoea hederacea); experiment: Test G Post-Emergence Protocol; conditions: Ipomoea, post-emergence, 312 h, read-out: Morningglory, Ivy-leaved damage rating
Summary of the method: as §2

[10] = system: giant foxtail (Setaria faberi); experiment: Test G Post-Emergence Protocol; conditions: Setaria faberi, post-emergence, 312 h, read-out: Foxtail, Giant damage rating
Summary of the method: as §2

[11] = system: redroot pigweed (Amaranthus retroflexus); experiment: Test G Post-Emergence Protocol; conditions: Amaranthus retroflexus, post-emergence, 312 h, read-out: Pigweed, Redroot damage rating
Summary of the method: as §2

[12] = system: velvetleaf (Abutilon theophrasti); experiment: Test G Post-Emergence Protocol; conditions: Abutilon theophrasti, post-emergence, 312 h, read-out: Velvetleaf damage rating
Summary of the method: as §2

[13] = 15.625 g ai/ha, evaluated after 13 days (100=total damage to plant; 0=no damage to plant)
[14] = 62.5 g ai/ha, evaluated after 13 days, 100=total damage to plant, 0=no damage to plant
[15] = 250 g ai/ha, evaluated after 13 days, 100=total damage to plant, 0=no damage to plant

CC(C)OC(=O)c1cc([C@H]2CN(C)C(=O)[C@@H]2C(=O)Nc2ccccc2F)ccc1F (racemic) [Compound 1730]
pest or weed control at 15.625 g/ha ([1]; 15.625 g ai/ha, read-out: Barnyardgrass damage rating (100=total damage to plant; 0=no damage to plant)): 0%
pest or weed control at 62.5 g/ha ([1]; 62.5 g ai/ha, 100=total damage to plant, 0=no damage to plant, read-out: Barnyardgrass damage rating): 10%
pest or weed control at 250 g/ha ([1]; 250 g ai/ha, read-out: Barnyardgrass damage rating (100=total damage to plant; 0=no damage to plant)): 70%
plant injury at 15.625 g/ha (corn (Zea mays) [2]; 15.625 g ai/ha, read-out: Corn damage rating (100=total damage to plant; 0=no damage to plant)): 0%
plant injury at 62.5 g/ha (corn (Zea mays) [2]; 62.5 g ai/ha, 100=total damage to plant, 0=no damage to plant, read-out: Corn damage rating): 0%
plant injury at 250 g/ha (corn (Zea mays) [2]; 250 g ai/ha, read-out: Corn damage rating (100=total damage to plant; 0=no damage to plant)): 0%
pest or weed control at 15.625 g/ha ([3]; 15.625 g ai/ha, read-out: Morningglory, Ivy-leaved damage rating (100=total damage to plant; 0=no damage to plant)): 0%
pest or weed control at 62.5 g/ha ([3]; 62.5 g ai/ha, 100=total damage to plant, 0=no damage to plant, read-out: Morningglory, Ivy-leaved damage rating): 0%
pest or weed control at 250 g/ha ([3]; 250 g ai/ha, read-out: Morningglory, Ivy-leaved damage rating (100=total damage to plant; 0=no damage to plant)): 0%
pest or weed control at 15.625 g/ha ([4]; 15.625 g ai/ha, read-out: Foxtail, Giant damage rating (100=total damage to plant; 0=no damage to plant)): 20%
pest or weed control at 62.5 g/ha ([4]; 62.5 g ai/ha, 100=total damage to plant, 0=no damage to plant, read-out: Foxtail, Giant damage rating): 50%
pest or weed control at 250 g/ha ([4]; 250 g ai/ha, read-out: Foxtail, Giant damage rating (100=total damage to plant; 0=no damage to plant)): 90%
pest or weed control at 15.625 g/ha ([5]; 15.625 g ai/ha, read-out: Pigweed, Redroot damage rating (100=total damage to plant; 0=no damage to plant)): 0%
pest or weed control at 62.5 g/ha ([5]; 62.5 g ai/ha, 100=total damage to plant, 0=no damage to plant, read-out: Pigweed, Redroot damage rating): 0%
pest or weed control at 250 g/ha ([5]; 250 g ai/ha, read-out: Pigweed, Redroot damage rating (100=total damage to plant; 0=no damage to plant)): 0%
pest or weed control at 15.625 g/ha ([6]; 15.625 g ai/ha, read-out: Velvetleaf damage rating (100=total damage to plant; 0=no damage to plant)): 0%
pest or weed control at 62.5 g/ha ([6]; 62.5 g ai/ha, 100=total damage to plant, 0=no damage to plant, read-out: Velvetleaf damage rating): 0%
pest or weed control at 250 g/ha ([6]; 250 g ai/ha, read-out: Velvetleaf damage rating (100=total damage to plant; 0=no damage to plant)): 0%
pest or weed control at 15.625 g/ha [7, 13]: 0%
pest or weed control at 62.5 g/ha [7, 14]: 40%
pest or weed control at 250 g/ha [7, 15]: 80%
plant injury at 15.625 g/ha (corn (Zea mays) [8]; [13]): 0%
plant injury at 62.5 g/ha (corn (Zea mays) [8]; [14]): 0%
plant injury at 250 g/ha (corn (Zea mays) [8]; [15]): 0%
pest or weed control at 15.625 g/ha [9, 13]: 0%
pest or weed control at 62.5 g/ha [9, 14]: 0%
pest or weed control at 250 g/ha [9, 15]: 0%
pest or weed control at 15.625 g/ha [10, 13]: 0%
pest or weed control at 62.5 g/ha [10, 14]: 20%
pest or weed control at 250 g/ha [10, 15]: 80%
pest or weed control at 15.625 g/ha [11, 13]: 0%
pest or weed control at 62.5 g/ha [11, 14]: 0%
pest or weed control at 250 g/ha [11, 15]: 0%
pest or weed control at 15.625 g/ha [12, 13]: 0%
pest or weed control at 62.5 g/ha [12, 14]: 0%
pest or weed control at 250 g/ha [12, 15]: 0%
